From patent publication EP4678634A1, “ANDROGEN RECEPTOR MODULATORS AND USES THEREOF” (Haihe Biopharma Co., Ltd., priority 2023, dated 2024) come the findings set out here.

Molecules are shown by their SMILES.

The test has as its target T1, Androgen receptor (AR) (Homo sapiens, UniProt P10275).
T1 construct: expressed in transfected cells; host or cells: HEK293T (AR+ARE/Luc)
T1 sequence (P10275 1-920): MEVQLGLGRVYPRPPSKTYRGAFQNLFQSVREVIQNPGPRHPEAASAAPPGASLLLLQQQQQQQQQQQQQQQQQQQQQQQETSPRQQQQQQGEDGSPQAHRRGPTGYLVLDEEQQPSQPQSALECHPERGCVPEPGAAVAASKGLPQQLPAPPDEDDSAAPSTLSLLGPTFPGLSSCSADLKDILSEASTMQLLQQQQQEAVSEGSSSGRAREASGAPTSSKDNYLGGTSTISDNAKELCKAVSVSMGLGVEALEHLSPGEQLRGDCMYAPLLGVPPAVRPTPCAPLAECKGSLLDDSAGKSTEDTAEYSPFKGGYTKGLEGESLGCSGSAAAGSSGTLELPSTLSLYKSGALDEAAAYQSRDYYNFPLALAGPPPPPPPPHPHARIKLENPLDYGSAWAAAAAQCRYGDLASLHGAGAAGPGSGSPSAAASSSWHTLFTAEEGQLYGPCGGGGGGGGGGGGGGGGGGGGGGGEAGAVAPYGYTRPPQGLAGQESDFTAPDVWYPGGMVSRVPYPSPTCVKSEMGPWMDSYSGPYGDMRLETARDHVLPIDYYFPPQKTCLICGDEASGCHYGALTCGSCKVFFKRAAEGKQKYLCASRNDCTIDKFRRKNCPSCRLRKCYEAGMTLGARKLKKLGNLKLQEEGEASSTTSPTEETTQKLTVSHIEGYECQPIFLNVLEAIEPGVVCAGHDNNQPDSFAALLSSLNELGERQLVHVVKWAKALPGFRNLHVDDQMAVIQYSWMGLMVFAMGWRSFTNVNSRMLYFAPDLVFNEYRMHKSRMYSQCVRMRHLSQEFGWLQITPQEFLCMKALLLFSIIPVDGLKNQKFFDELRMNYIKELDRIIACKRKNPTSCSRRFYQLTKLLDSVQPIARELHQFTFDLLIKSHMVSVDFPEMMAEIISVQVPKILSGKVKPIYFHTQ
As to the kind of experiment: Androgen receptor (AR) reporter gene assay (luciferase). To be noted: AR+ARE/Luc HEK293T cells, stimulated with 11-KDHT, 24h incubation, Bright-Lite luminescence; read-out: HEK293 Luc IC50. The class given is cell-based. Here is the method: Androgen receptor (AR) reporter gene assay
Experimental reagents: 11-Ketodihydrotestosterone (11-KDHT) was purchased from MCE (cat.HY-135794); Enzalutamide (MDV3100) was purchased from Selleck (cat.S1250); Bright-Lite Luciferase Assay kit was purchased from Vazyme (cat.DD1204-01);
• 1. dissolve the described compounds in 100% DMSO at a final concentration of 10 mM. 100 nL each of 400X compound to be tested and 400X 11-KDHT (40 nM) were added to a 384-well assay plate with Echo, followed by 20 µL of complete medium, and centrifuged at 1000 rpm for 1 min, and oscillated for 20-30 min at room temperature. • 2. 20 µL of AR+ARE/Luc HEK293T cells (10,000 cells/well) were inoculated into the assay plate containing the compounds and 11-KDHT, and centrifuged at 1000 rpm for 1 min. The assay plate was incubated in a 37 °C CO2 incubator for 24h. • 3. 40 µL of Bright-Lite assay reagent was transferred to each well of the assay plate, centrifuged at 1000 rpm for 1 min, and shaken for 2 min at room temperature protected from light. Luminescence values (RLU) were measured using Envision. Based on the results, the IC50 values of the compounds described were calculated. Table 1 HEK293-Luc% inhibition IC50 of representative compounds
A general note: Reporter assays use an easily measured gene product as a stand-in for the process of interest.
By IC50 is commonly meant the concentration that gives 50% inhibition. Take `CNc1ncc(C2CCCc3c2cc(C#N)c(OCCCl)c3Cl)cn1` (stereo not drawn) [HANT-247, 4-chloro-3-(2-chloroethoxy)-8-(2-(methylamino)pyrimidin-5-yl)-5,6,7,8-tetrahydronaphthalene-2-carbonitrile]: the IC50 is 1 to 500 nM. In the case of `N#Cc1cc2c(c(Cl)c1OCCCl)CCCC2c1cnc(NCCO)nc1` (stereo not drawn) [HANT-248, 4-chloro-3-(2-chloroethoxy)-8-(2-((2-hydroxyethyl)amino)pyrimidin-5-yl)-5,6,7,8-tetrahydrona phthalene-2-carbonitrile], the IC50 is 1 to 500 nM. As for `N#Cc1cc2c(c(Cl)c1OCCCl)CCCC2c1cnc(N)cn1` (stereo not drawn) [HANT-249], the figure is 500 to 1000 nM; as for `N#Cc1cc2c(c(Cl)c1OCCCl)CCCC2Nc1cncnc1` (stereo not drawn) [HANT-250], 1 to 500 nM; as for `N#Cc1cc2c(c(Cl)c1OCCCl)CCCC2Nc1cnc(N)nc1` (stereo not drawn) [HANT-251], 1 to 500 nM. As for `N#Cc1cc2c(c(Cl)c1OCCCl)CCCC2Nc1ccccn1` (stereo not drawn) [HANT-252], the figure is 1 to 500 nM; as for `N#Cc1cc2c(c(Cl)c1OCCCl)CCCC2Nc1cncc(F)c1` (stereo not drawn) [HANT-254], 1 to 500 nM. The same measure for `N#Cc1cc2c(c(Cl)c1OCCCl)CCCC2c1cccnc1` (stereo not drawn) [HANT-255]: 1 to 500 nM.

Take `N#Cc1cc2c(c(Cl)c1OCCCl)CCCC2c1cncc(N)c1` (stereo not drawn) [HANT-256]: the concentration for half-maximal inhibition (IC50) was in the range of 1000 to 2000 nM. The same measure for `CCCOc1c(C#N)cc2c(c1Cl)CCCC2c1cnc(N)nc1` (stereo not drawn) [HANT-257]: 1 to 500 nM; for `Cn1ccc(NC2CCCc3c2cc(C#N)c(OCCCl)c3Cl)cc1=O` (stereo not drawn) [HANT-261]: 500 to 1000 nM. As for `N#Cc1ccc(NC2CCCc3c2cc(C#N)c(OCCCl)c3Cl)cn1` (stereo not drawn) [HANT-262], the figure is 1 to 500 nM; as for `CNC(=O)c1ccc(NC2CCCc3c2cc(C#N)c(OCCCl)c3Cl)cn1` (stereo not drawn) [HANT-263], 1 to 500 nM; as for `N#Cc1cc2c(c(Cl)c1OCCCl)CCCC2NC1CCCOC1` (stereo not drawn) [HANT-264], over 2000 nM.

Turning to `COc1cncc(NC2CCCc3c2cc(C#N)c(OCCCl)c3Cl)c1` (stereo not drawn) [HANT-266], the IC50 is 1 to 500 nM. As for `N#Cc1cc2c(c(Cl)c1OCCCl)CCCC2Oc1cccnc1` (stereo not drawn) [HANT-267], the figure is 1 to 500 nM. The same measure for `CCCOc1c(C#N)cc2c(c1Cl)CCCC2Nc1ccc2[nH]ncc2c1` (stereo not drawn) [HANT-268, 8-((1H-indazol-5-yl)amino)-4-chloro-3-propoxy-5,6,7,8-tetrahydronaphthalene-2-carbonitrile]: 1 to 500 nM; for `CCOc1c(C#N)cc2c(c1Cl)CCCC2Nc1ccc2[nH]ncc2c1` (stereo not drawn) [HANT-269, 8-((1H-indazol-5-yl)amino)-4-chloro-3-ethoxy-5,6,7,8-tetrahydronaphthalene-2-carbonitrile]: 1 to 500 nM; for `COc1ccc(C2CCCc3c2cc(C#N)c(OCCCl)c3Cl)cc1` (stereo not drawn) [HANT-334]: 1 to 500 nM. As for `COc1ccc(C2CCCc3c2cc(C#N)c(OCCCl)c3Cl)cn1` (stereo not drawn) [HANT-335], the figure is 1 to 500 nM. On to `Oc1ccc(C2CCCc3c2cc(Cl)c(OCCCl)c3Cl)cc1` (stereo not drawn) [HANT-336A, 4-(5,7-dichloro-6-(2-chloroethoxy)-1,2,3,4-tetrahydronaphthalen-1-yl)phenol], for which the half-inhibitory concentration (IC50) is 500 to 1000 nM.

On to `Oc1ccc(C2CCCc3c2cc(Cl)c(OCCCl)c3Cl)cc1` (stereo not drawn) [HANT-336B, 4-(5,7-dichloro-6-(2-chloroethoxy)-1,2,3,4-tetrahydronaphthalen-1-yl)phenol], for which the IC50 lay within 1 to 500 nM. For the molecule `N#Cc1cc2c(c(Cl)c1OCCCl)CCCC2c1ccc2c(c1)C(=O)NC2` (stereo not drawn) [HANT-948], the half-maximal inhibitory concentration (IC50) lay within 500 to 1000 nM. The same measure for `Cn1nc(C2CCCc3c2cc(C#N)c(OCCCl)c3Cl)c2ccccc21` (stereo not drawn) [HANT-949]: 1000 to 2000 nM; for `Cn1cc2c(n1)CN(C1CCCc3c1cc(C#N)c(OCCCl)c3Cl)C2` (stereo not drawn) [HANT-950, 4-Chloro-3-(2-chloroethoxy)-8-(2-methyl-2,6-dihydropyrrolo[3,4-c]pyrazol-5(4H)-yl)-5,6,7,8-t etrahydronaphthalene-2-carbonitrile]: 1000 to 2000 nM; for `N#Cc1cc2c(c(Cl)c1OCCCl)CCCC2c1ccc2c(c1)C(=O)NC2=O` (stereo not drawn) [HANT-977]: 1 to 500 nM. As for `N#Cc1cc2c(c(Cl)c1OCCCl)CCCC2c1ccc2n[nH]c(=O)n2c1` (stereo not drawn) [HANT-978], the figure is 1 to 500 nM; as for `N#Cc1cc2c(c(Cl)c1OCCCl)CCCC2c1cc2c3c(cccc3c1)NC2=O` (stereo not drawn) [HANT-979, 4-Chloro-3-(2-chloroethoxy)-8-(2-oxo-1,2-dihydrobenzo[cd]indol-4-yl)-5,6,7,8-tetrahydronapht halene-2-carbonitrile], 500 to 1000 nM; as for `CN1C(=O)c2ccc(C3CCCc4c3cc(C#N)c(OCCCl)c4Cl)cc2C1=O` (stereo not drawn) [HANT-982], 1 to 500 nM.

As to `CN1Cc2ccc(C3CCCc4c3cc(C#N)c(OCCCl)c4Cl)cc2C1=O` (stereo not drawn) [HANT-983], the 50% inhibitory concentration (IC50) was over 2000 nM.
